From ChEMBL document CHEMBL1201862, “PubChem BioAssay data set” (2004)
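Values below derive from 48-hour exposures of cells grown in 96-well plates, with endpoints linearly interpolated between the two concentrations bracketing the appropriate inhibition level. GI50 = concentration required for 50% inhibition of growth.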 The source made the active and inactive calls. Cut-off read from the data, not from the text of the source: active = GI50 up to about 1.1 µM and inactive = higher.

Key:
Experiment in all cases: growth of human tumour cells (NCI), 48 h
SNB-19 = test system: SNB-19
CCRF-CEM = test system: CCRF-CEM
ACHN = test system: ACHN
UACC-62 = test system: UACC-62
EKVX = test system: EKVX
Malme-3M = test system: Malme-3M
HT-29 = test system: HT-29
OVCAR-3 = test system: OVCAR-3
SNB-75 = test system: SNB-75
SN12C = test system: SN12C
HOP-92 = test system: HOP-92
OVCAR-4 = test system: OVCAR-4
U-251 = test system: U-251
Hs-578T = test system: Hs-578T
OVCAR-5 = test system: OVCAR-5
A498 = test system: A498
NCI-H460 = test system: NCI-H460
DU-145 = test system: DU-145
SF-268 = test system: SF-268
RXF 393 = test system: RXF 393

Measured: GI50

CCOC(=O)n1c2ccccc2c2c(O)c(OC)c3c(c21)C(=O)NC3=O
inactive: SNB-19 84.5 µM | CCRF-CEM 13.1 µM | ACHN 19.8 µM | UACC-62 37.7 µM | EKVX > 100 µM | Malme-3M 35.9 µM | HT-29 24 µM | OVCAR-3 22.2 µM | SNB-75 37.8 µM | SN12C 83.6 µM | HOP-92 76 µM | OVCAR-4 44.6 µM | U-251 32 µM | Hs-578T 59.4 µM | OVCAR-5 50.9 µM | A498 78.7 µM | NCI-H460 13.9 µM | DU-145 30 µM

Cc1cccc(CC(Cc2c(C)cccc2C(=O)O)C(=O)O)c1 (stereo not drawn)
active: UACC-62 0.0875 µM
inactive: SNB-19 > 100 µM | CCRF-CEM > 100 µM | ACHN > 100 µM | EKVX > 100 µM | Malme-3M > 100 µM | HT-29 > 100 µM | SF-268 > 100 µM | OVCAR-3 > 100 µM | SNB-75 > 100 µM | SN12C > 100 µM | OVCAR-4 > 100 µM | U-251 > 100 µM | Hs-578T > 100 µM | OVCAR-5 > 100 µM | A498 > 100 µM | RXF 393 > 100 µM | NCI-H460 > 100 µM | DU-145 > 100 µM

COc1ccc(CCCNC(=O)Cc2ccccc2CO)cc1OC
inactive: SNB-19 > 100 µM | CCRF-CEM > 100 µM | ACHN > 100 µM | UACC-62 > 100 µM | EKVX > 100 µM | Malme-3M > 100 µM | HT-29 > 100 µM | OVCAR-3 > 100 µM | SNB-75 > 100 µM | SN12C > 100 µM | HOP-92 > 100 µM | OVCAR-4 > 100 µM | U-251 > 100 µM | Hs-578T > 100 µM | OVCAR-5 > 100 µM | A498 > 100 µM | NCI-H460 > 100 µM | DU-145 > 100 µM

CCCC(=O)Oc1cc(OC(=O)CCC)c2c(C)cc(=O)oc2c1
inactive: SNB-19 > 100 µM | CCRF-CEM 31.9 µM | ACHN > 100 µM | UACC-62 66.1 µM | EKVX > 100 µM | Malme-3M 76.6 µM | HT-29 36.5 µM | SF-268 > 100 µM | OVCAR-3 50 µM | SNB-75 52.4 µM | SN12C > 100 µM | HOP-92 19.6 µM | OVCAR-4 > 100 µM | U-251 78.3 µM | Hs-578T 48.4 µM | OVCAR-5 > 100 µM | A498 46.1 µM | DU-145 > 100 µM

C=CCC1C2CCC(O[Si](C(C)C)(C(C)C)C(C)C)(C(C(=O)OC)C2)C1O (stereo not drawn)
inactive: SNB-19 > 100 µM | CCRF-CEM 60.8 µM | ACHN > 100 µM | UACC-62 55.2 µM | EKVX 22.4 µM | HT-29 53.7 µM | SF-268 > 100 µM | OVCAR-3 > 100 µM | SNB-75 71.1 µM | SN12C > 100 µM | HOP-92 > 100 µM | OVCAR-4 > 100 µM | U-251 60.3 µM | Hs-578T 23.6 µM | OVCAR-5 > 100 µM | A498 > 100 µM | NCI-H460 61.8 µM | DU-145 > 100 µM

CCN1CCC(O)(c2ccc([N+](=O)[O-])cc2)C(C(=O)c2ccc([N+](=O)[O-])cc2)C1 (stereo not drawn)
inactive: SNB-19 95.1 µM | CCRF-CEM 11.9 µM | ACHN 17.8 µM | UACC-62 18.2 µM | EKVX 18.9 µM | Malme-3M 20.1 µM | HT-29 32.1 µM | SF-268 21 µM | OVCAR-3 14.8 µM | SNB-75 34.5 µM | SN12C 21.1 µM | OVCAR-4 25.9 µM | U-251 29.2 µM | Hs-578T 23.2 µM | OVCAR-5 52.6 µM | A498 22 µM | RXF 393 14.4 µM | NCI-H460 28.8 µM | DU-145 17.7 µM

COc1ccc(C(=O)N2CCc3c([nH]c4ccccc34)C2C(=O)O)o1 (stereo not drawn)
inactive: SNB-19 > 10 µM | CCRF-CEM > 10 µM | ACHN > 10 µM | UACC-62 > 10 µM | EKVX > 10 µM | Malme-3M > 10 µM | HT-29 > 10 µM | SF-268 > 10 µM | OVCAR-3 > 10 µM | SNB-75 > 10 µM | SN12C > 10 µM | HOP-92 > 10 µM | OVCAR-4 > 10 µM | U-251 > 10 µM | Hs-578T > 10 µM | A498 > 10 µM | DU-145 > 10 µM

CN(Cc1cnc2c(N)nc(N)nc2n1)c1ccc(Cl)cc1
inactive: SNB-19 33.3 µM | CCRF-CEM > 100 µM | ACHN 26.6 µM | UACC-62 24.4 µM | EKVX > 100 µM | Malme-3M > 100 µM | SF-268 33.6 µM | OVCAR-3 > 100 µM | SNB-75 12.5 µM | SN12C > 100 µM | U-251 > 100 µM | Hs-578T 33.9 µM | OVCAR-5 > 100 µM | A498 31.7 µM | RXF 393 17 µM | NCI-H460 42.5 µM | DU-145 > 100 µM

O=C(CN1CCCCC1)Nc1ccc2sc3ccccc3c(=O)c2n1
inactive: SNB-19 19.9 µM | CCRF-CEM 5.92 µM | ACHN 14.2 µM | UACC-62 15.4 µM | EKVX 22.7 µM | Malme-3M 32.1 µM | HT-29 30.3 µM | SF-268 24.2 µM | OVCAR-3 31.5 µM | SNB-75 15.2 µM | SN12C 12.5 µM | HOP-92 15.1 µM | OVCAR-4 30.1 µM | U-251 16.6 µM | Hs-578T 18.8 µM | OVCAR-5 18.2 µM | NCI-H460 13.2 µM | DU-145 20.3 µM

O=C1c2ccccc2-c2ccc(O)cc21
inactive: SNB-19 23.9 µM | ACHN 16.6 µM | UACC-62 15.3 µM | EKVX 16.4 µM | Malme-3M 23.4 µM | HT-29 30.7 µM | SF-268 19.1 µM | SNB-75 29 µM | SN12C 15.7 µM | OVCAR-4 20.7 µM | U-251 26.7 µM | Hs-578T 33.6 µM | OVCAR-5 26.7 µM | A498 21.5 µM | RXF 393 10.4 µM | NCI-H460 20.1 µM | DU-145 20.1 µM

O=C1Nc2c(Cl)cccc2/C1=N/Nc1ccccc1[N+](=O)[O-]
inactive: SNB-19 44.3 µM | CCRF-CEM 46 µM | ACHN 11.9 µM | UACC-62 17.5 µM | EKVX 3.51 µM | Malme-3M 3.58 µM | HT-29 12.5 µM | SF-268 11.4 µM | OVCAR-3 44.4 µM | SNB-75 14 µM | SN12C 28.9 µM | OVCAR-4 8.81 µM | U-251 14.2 µM | Hs-578T 7.87 µM | OVCAR-5 50.7 µM | A498 28.2 µM | RXF 393 31.9 µM | NCI-H460 17.3 µM | DU-145 16.4 µM
